In PubChem BioAssay (NCI):
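Growth conditions: 96-well plates. Treatment: test compound, 48 hours, 5 concentrations. Analysis: linear interpolation between bracketing concentrations; unreached endpoints set to highest concentration. At the TGI there is no net growth.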

What was measured:
Experiment in all cases: growth of human tumour cells (NCI), 48 h
A549 NSCLC = system: A549 NSCLC
DU-145 prostate = system: DU-145 prostate
LOX IMVI melanoma = system: LOX IMVI melanoma
MCF7 breast = system: MCF7 breast
MDA-MB-435 = system: MDA-MB-435
RXF 393 renal = system: RXF 393 renal
SK-MEL-5 melanoma = system: SK-MEL-5 melanoma
SNB-75 CNS = system: SNB-75 CNS
SW-620 colon = system: SW-620 colon
U251 CNS = system: U251 CNS

For `CC1=CC[C@](C)(O)[C@@]2(C)CC[C@H]3C(=C(C)C)C(=O)C[C@]3(C)C[C@H]12`, the TGI (A549 NSCLC) was over 50 µM, the TGI (DU-145 prostate) was over 50 µM and the TGI (LOX IMVI melanoma) was 17 µM. It also gave a TGI (MCF7 breast) of over 50 µM, a TGI (MDA-MB-435) of over 50 µM and a TGI (RXF 393 renal) of over 50 µM. It also gave a TGI (SK-MEL-5 melanoma) of over 50 µM, a TGI (SNB-75 CNS) of over 50 µM and a TGI (SW-620 colon) of over 50 µM. For the same compound, the TGI (U251 CNS) was over 50 µM.

Work on `CCN1CCCn2c(=O)[nH]c3cc(Br)cc1c32` yielded a TGI (A549 NSCLC) of over 100 µM, a TGI (DU-145 prostate) of over 100 µM and a TGI (LOX IMVI melanoma) of over 100 µM. For the same compound, the TGI (MCF7 breast) was over 100 µM, the TGI (MDA-MB-435) was over 100 µM and the TGI (RXF 393 renal) was 54.6 µM. The TGI (SK-MEL-5 melanoma) was over 100 µM, the TGI (SNB-75 CNS) was 43.2 µM and the TGI (SW-620 colon) was over 100 µM. For the same compound, the TGI (U251 CNS) was over 100 µM.

`CCN(CC)C1Oc2cc3c(cc2C(c2cc(OC)c(OC)c(OC)c2)C1C)OCO3` (stereo not given) showed a TGI (A549 NSCLC) of over 46.8 µM, a TGI (DU-145 prostate) of over 91.4 µM and a TGI (LOX IMVI melanoma) of over 48.8 µM. For the same compound, the TGI (MCF7 breast) was over 50 µM, the TGI (MDA-MB-435) was 0.535 µM and the TGI (RXF 393 renal) was over 44.1 µM. The TGI (SK-MEL-5 melanoma) was 6.68 µM, the TGI (SNB-75 CNS) was over 69.9 µM and the TGI (SW-620 colon) was over 63.1 µM. The TGI (U251 CNS) was 6.89 µM.

With `COc1cc(CNC(=S)CCCCCCCCCCC(C)C)ccc1O` the TGI (A549 NSCLC) was over 100 µM, the TGI (DU-145 prostate) was over 100 µM and the TGI (LOX IMVI melanoma) was over 100 µM. The TGI (MCF7 breast) was over 100 µM, the TGI (MDA-MB-435) was over 100 µM and the TGI (RXF 393 renal) was over 100 µM. The TGI (SK-MEL-5 melanoma) was over 100 µM, the TGI (SNB-75 CNS) was over 100 µM and the TGI (SW-620 colon) was over 100 µM. It also gave a TGI (U251 CNS) of over 100 µM.

`CC(=O)Nc1ccc(/C=C2/NC(=S)N(/C=C3\C(=O)Oc4ccccc4C3=O)C2=O)cc1` gave a TGI (A549 NSCLC) of over 100 µM, a TGI (DU-145 prostate) of over 100 µM and a TGI (LOX IMVI melanoma) of over 100 µM. For the same compound, the TGI (MCF7 breast) was over 100 µM, the TGI (MDA-MB-435) was over 100 µM and the TGI (RXF 393 renal) was over 100 µM. The TGI (SK-MEL-5 melanoma) was over 100 µM, the TGI (SNB-75 CNS) was 63.1 µM and the TGI (SW-620 colon) was over 100 µM. For the same compound, the TGI (U251 CNS) was over 100 µM.

With `COc1cc2oc(-c3ccc4c(c3)OCO4)c(OC)c(=O)c2c(O)c1OC` the TGI (A549 NSCLC) was over 50 µM, the TGI (DU-145 prostate) was over 50 µM and the TGI (LOX IMVI melanoma) was over 50 µM. It also gave a TGI (MCF7 breast) of over 50 µM, a TGI (MDA-MB-435) of over 50 µM and a TGI (RXF 393 renal) of over 50 µM. For the same compound, the TGI (SK-MEL-5 melanoma) was over 50 µM, the TGI (SNB-75 CNS) was over 50 µM and the TGI (SW-620 colon) was over 50 µM. For the same compound, the TGI (U251 CNS) was over 50 µM.

For `O=C(NCCCCCCO)c1cccc2cc3ccccc3nc12`, the TGI (A549 NSCLC) was 31.5 µM, the TGI (DU-145 prostate) was 32 µM and the TGI (LOX IMVI melanoma) was 34.7 µM. It also gave a TGI (MCF7 breast) of 39.3 µM, a TGI (MDA-MB-435) of 47.3 µM and a TGI (RXF 393 renal) of 37.7 µM. The TGI (SK-MEL-5 melanoma) was 32.9 µM, the TGI (SNB-75 CNS) was 37.3 µM and the TGI (SW-620 colon) was over 100 µM. For the same compound, the TGI (U251 CNS) was over 100 µM.

With `CNC(=O)N(CCC#N)CCCN(C(=O)N(C)C)c1ccccc1` the TGI (A549 NSCLC) was over 100 µM, the TGI (DU-145 prostate) was over 100 µM and the TGI (LOX IMVI melanoma) was over 100 µM. It also gave a TGI (MCF7 breast) of over 100 µM, a TGI (MDA-MB-435) of over 100 µM and a TGI (RXF 393 renal) of over 100 µM. It also gave a TGI (SK-MEL-5 melanoma) of over 100 µM, a TGI (SNB-75 CNS) of over 100 µM and a TGI (SW-620 colon) of over 100 µM. For the same compound, the TGI (U251 CNS) was over 100 µM.

`CC(=Nc1cc(Cl)cc(Cl)c1)c1ccncc1` showed a TGI (A549 NSCLC) of over 100 µM, a TGI (DU-145 prostate) of over 100 µM and a TGI (LOX IMVI melanoma) of over 100 µM. The TGI (MCF7 breast) was over 100 µM, the TGI (MDA-MB-435) was over 100 µM and the TGI (RXF 393 renal) was over 100 µM. For the same compound, the TGI (SK-MEL-5 melanoma) was over 100 µM, the TGI (SNB-75 CNS) was over 100 µM and the TGI (SW-620 colon) was over 100 µM. It also gave a TGI (U251 CNS) of over 100 µM.

Work on `CC(C)(Cc1ccccc1)N1C(=O)N1C(C)(C)Cc1ccccc1` yielded a TGI (A549 NSCLC) of 77.7 µM, a TGI (DU-145 prostate) of over 100 µM and a TGI (LOX IMVI melanoma) of 33.6 µM. For the same compound, the TGI (MCF7 breast) was over 100 µM, the TGI (MDA-MB-435) was over 100 µM and the TGI (RXF 393 renal) was 48.3 µM. It also gave a TGI (SK-MEL-5 melanoma) of 43.4 µM, a TGI (SNB-75 CNS) of over 100 µM and a TGI (SW-620 colon) of over 100 µM. It also gave a TGI (U251 CNS) of over 100 µM.

For `COC(=O)C1CC23C=CCN4CC(C2C)C2(c5ccccc5NC12)C43` (stereo not given), the TGI (A549 NSCLC) was over 100 µM, the TGI (DU-145 prostate) was over 100 µM and the TGI (LOX IMVI melanoma) was over 100 µM. It also gave a TGI (MCF7 breast) of over 100 µM, a TGI (MDA-MB-435) of over 100 µM and a TGI (RXF 393 renal) of over 100 µM. It also gave a TGI (SK-MEL-5 melanoma) of over 100 µM, a TGI (SNB-75 CNS) of over 100 µM and a TGI (SW-620 colon) of over 100 µM. It also gave a TGI (U251 CNS) of over 100 µM.

`Nc1ccc2c(c1)NC(=O)[C@@H]1CCCN1C2=O` was tested, and the TGI (A549 NSCLC) was over 100 µM, the TGI (DU-145 prostate) was over 100 µM and the TGI (LOX IMVI melanoma) was over 100 µM. For the same compound, the TGI (MCF7 breast) was over 100 µM, the TGI (MDA-MB-435) was over 100 µM and the TGI (RXF 393 renal) was over 100 µM. For the same compound, the TGI (SK-MEL-5 melanoma) was over 100 µM, the TGI (SNB-75 CNS) was over 100 µM and the TGI (SW-620 colon) was over 100 µM. The TGI (U251 CNS) was over 100 µM.

Compound `O=c1[nH]c2cc([N+](=O)[O-])c(Nc3c4ccccc4nc4ccccc34)c([N+](=O)[O-])c2[nH]1` has a TGI (A549 NSCLC) of 12.3 µM, a TGI (DU-145 prostate) of 8.82 µM and a TGI (LOX IMVI melanoma) of 7.02 µM. The TGI (MCF7 breast) was 8.36 µM, the TGI (MDA-MB-435) was 8.62 µM and the TGI (RXF 393 renal) was 10.1 µM. It also gave a TGI (SK-MEL-5 melanoma) of 7.65 µM, a TGI (SNB-75 CNS) of 13.5 µM and a TGI (SW-620 colon) of 14.7 µM. The TGI (U251 CNS) was 22.6 µM.

With `COC(=O)/C=c1/c2ccccc2n2c1c1ccccc1[n+]2C` the TGI (A549 NSCLC) was 24.1 µM, the TGI (DU-145 prostate) was 36.3 µM and the TGI (LOX IMVI melanoma) was 27.9 µM. For the same compound, the TGI (MCF7 breast) was 26.5 µM, the TGI (MDA-MB-435) was 18.8 µM and the TGI (RXF 393 renal) was 17.4 µM. It also gave a TGI (SK-MEL-5 melanoma) of 8.12 µM, a TGI (SNB-75 CNS) of 8.44 µM and a TGI (SW-620 colon) of 12.3 µM. For the same compound, the TGI (U251 CNS) was 19.4 µM.

Work on `CC1CN=C(c2ccc(-c3nc(-c4ccc(C5=NCC(C)N5)cc4)nc(N(C)C)n3)cc2)N1` (stereo not given) yielded a TGI (A549 NSCLC) of 12.8 µM, a TGI (DU-145 prostate) of 5.59 µM and a TGI (LOX IMVI melanoma) of 2.93 µM. It also gave a TGI (MCF7 breast) of 4.71 µM, a TGI (MDA-MB-435) of 3.09 µM and a TGI (RXF 393 renal) of 12.8 µM. For the same compound, the TGI (SK-MEL-5 melanoma) was 14 µM, the TGI (SNB-75 CNS) was 4.29 µM and the TGI (SW-620 colon) was 5.56 µM. The TGI (U251 CNS) was 2.35 µM.
